Assay results as given in patent US9889152B2, “Multiple PPI dosage form” (TAKEDA PHARMACEUTICALS U.S.A., INC., priority 2004, dated 2018).

Legend:
[1] = system: gastric pH; assay: Threshold level modeling: effect compartment / sigmoid Emax PK-PD model of intragastric pH versus lansoprazole concentration after single intravenous doses; assay type: in vivo, humans; details: effect compartment concentration (assumed same as plasma concentration at steady-state), fasting, FIG. 1
Text: Plasma concentration data obtained following administration of single intravenous doses of lansoprazole in humans was modeled to establish threshold concentrations above which a PPI is effective. Initially, gastric pH measured over the five hours post dosing (under fasting conditions) was plotted as a function of plasma concentration. However, no direct relationship between the gastric pH and the drug's plasma concentration could be established. […] An effect compartment model was then used in an attempt to delineate a useful relationship between drug concentration and effect. Accordingly, a model was proposed where a PK compartment was linked to a separate effect compartment. […] Using the same intravenous data, the pharmacological effect was modeled using sigmoid Emax model and PK was modeled using the two compartment model. The modeling first established the pharmacokinetic characteristics of lansoprazole, then the relationship between drug plasma concentration and intragastric pH was established, and pharacodynamic parameter estimates were obtained. The modeling provided the graph shown in FIG. 1 where the effect compartment concentration (assumed to be the same as the plasma concentration at steady-state) is on the x-axis and gastric pH on the y-axis. […]

[2] = Site of absorption study (Phase 1, remote control capsule, segmental absorption and pharmacokinetics); assay type: in vivo, human; details: 30 mg powder with sodium bicarbonate released via remote control capsule; healthy adult males
Text: This was a Phase 1, open-label, non-randomized, four-period, single-dose, crossover study in 8 healthy adult males. […] Upon receiving a remote signal during Periods 1, 2, and 3, the capsule released it's contents in the pre-designated site within the GI tract (see table 1 below).
Indium-111 chloride (^111 In-chloride) was used as the radioactive marker in the test formulation that was filled into remote control capsule. Each subject also received a second radioisotope, technetium-99m DTPA (^99mTc-DTPA), in the water used to swallow the InteliSite Companion capsule. Since the radioisotopes are not absorbed, progress of the formulation through the GI tract was monitored using a gamma camera that captures images at frequent intervals after ingestion of the dose. The radioisotope in the water outlined or “mapped” the GI tract to delineate the targeted site of drug release. […]
The relative bioavailability of lansoprazole delivered to the proximal small intestine, distal small intestine, or colon compared to the delayed release lansoprazole capsule was calculated as the ratios of AUC∞ for different GI regions to that of the delayed release capsule. In addition, the relative bioavailability of lansoprazole delivered to the distal small intestine and colon compared to the proximal small intestine was calculated.

Cc1c(OCC(F)(F)F)ccnc1C[S+]([O-])c1nc2ccccc2[nH]1 (stereo not shown) [lansoprazole]
concentration above which the effect on gastric pH levels off [1]: ~450 ng/ml
threshold concentration above which the effect of the drug (rise of gastric pH above baseline) begins [1]: approximately 100 ng/ml
extent of absorption when directly delivered to the colon [2]: reduced
rate and extent of absorption from the distal small intestine versus proximal intestine [2]: less than those obtained for the proximal intestine, although the absorptions were comparable
